One compound from ChEMBL document CHEMBL2086361, “Synthesis and biological activity of pyridopyridazin-6-one p38α MAP kinase inhibitors. Part 2” (Bioorg Med Chem Lett, 2012) can be followed below.

The nature of data set [1]: in vivo. As to conditions: rat.
Data set [2] can be described thus: in vivo. As to conditions: dog.
Data set [3] in a line: in vivo. As to conditions: rhesus monkey.
The nature of data set [4]: in vivo. As to conditions: rat, iv, 1 mg/kg.
Data set [5] is described as follows: in vivo. As to conditions: dog, iv, 0.25 mg/kg.
Data set [6] in a line: in vivo. As to conditions: rhesus monkey, iv, 1 mg/kg.
Data set [7] is described as follows: in vivo. As to conditions: rat, plasma.
A short description of data set [8]: in vivo. As to conditions: dog, plasma.
Data set [9] can be described thus: in vivo. As to conditions: rhesus monkey, plasma.
Data set [10] is described as follows: in vivo. As to conditions: rat, po, 2 mg/kg.
Data set [11] can be described thus: in vivo. As to conditions: dog, po, 2 mg/kg.
Data set [12] can be described thus: in vivo. As to conditions: rhesus monkey, po, 2 mg/kg.

By half-life is commonly meant the time in which the quantity being followed falls by half. By clearance is commonly meant a measure of how efficiently the substance is removed, as volume per time. The term AUC denotes the area under the concentration-time curve, a measure of exposure. A word on the bioavailability: it is the share of a dose that reaches the circulation, judged against a reference dose that is usually intravenous.

The structures appear in SMILES notation.

With `Cc1nnc(-c2ccc(F)c(-c3c(=O)ccn4nc(Oc5ccc(F)cc5F)ccc34)c2)o1`, the half-life is 4.4 h in the data set “in vivo [1]”, 4.5 h in the data set “in vivo [2]” and 6.9 h in “in vivo [3]”. Besides, the clearance in the data set “in vivo [4]” amounted to 2 mL/min/kg; in the data set “in vivo [5]”, 2.8 mL/min/kg; in the data set “in vivo [6]” it was 2 mL/min/kg. For the same compound, the AUC was found to be 20 µM·h in “in vivo [7]”, 2.1 µM·h in “in vivo [8]” and 5.6 µM·h in “in vivo [9]”. Moreover, the bioavailability came to 93% in “in vivo [10]”, 15% in the data set “in vivo [11]” and 31% in the data set “in vivo [12]”.
